The values that follow come from patent publication EP3708565A1, “PYRIMIDINYLOXYPHENYLAMIDINES AND THE USE THEREOF AS FUNGICIDES” (Bayer AG, priority 2020, dated 2020).

Some results are limits rather than exact numbers.

The test system of data set [1] is Phakospora pachyrhizi. The data set is described as follows: in vivo preventive test on Phakospora pachyrhizi (soybean rust). Particulars: for pest or weed control at 500 ppm: Glycine max, 288 h, 500 ppm of active ingredient, young soybean plants sprayed, inoculated after 24 hours, evaluated 12 days after the inoculation, read-out: efficacy; for efficacy: 500 ppm. The protocol:
Example: in vivo preventive test on Phakospora pachyrhizi (soybean rust)
(§1) The active ingredients were made soluble and homogenized in a mixture of Dimethyl sulfoxide/Acetone/ /Tween® 80 and then diluted in water to the desired concentration.
The young plants of soybean were treated by spraying the active ingredient prepared as described above. Control plants were treated only with an aqueous solution of Acetone/Dimethyl sulfoxide/ […].
After 24 hours, the plants were contaminated by spraying the leaves with an aqueous suspension of Phakosporapachyrhizi spores. The contaminated soybean plants were incubated for 24 hours at 24°C and at 100% relative humidity and then for 11 days at 24°C and at 70-80% relative humidity.
The test was evaluated 12 days after the inoculation. 0% means an efficacy which corresponds to that of the control plants while an efficacy of 100% means that no disease was observed.

Data set [2] has as its system Puccinia recondita. The data set can be described thus: in vivo preventive test on Puccinia recondita (brown rust on wheat). Particulars: for pest or weed control at 500 ppm: Puccinia recondita, 264 h, 500 ppm of active ingredient, young wheat plants sprayed, inoculated after 24 hours, evaluated 11 days after the inoculation, read-out: efficacy; for efficacy: 500 ppm. The protocol: Example: in vivo preventive test on Puccinia recondita (brown rust on wheat)
as §1
The young plants of wheat were treated by spraying the active ingredient prepared as described above. Control plants were treated only with an aqueous solution of Acetone/Dimethyl sulfoxide/ Tween® 80.
After 24 hours, the plants were contaminated by spraying the leaves with an aqueous suspension of Puccinia recondita spores. The contaminated wheat plants were incubated for 24 hours at 20°C and at 100% relative humidity and then for 10 days at 20°C and at 70-80% relative humidity.
The test was evaluated 11 days after the inoculation. 0% means an efficacy which corresponds to that of the control plants while an efficacy of 100% means that no disease was observed.

Data set [3] has as its system Sphaerotheca fuliginea. The data set is described as follows: in vivo preventive test on Sphaerotheca fuliginea (powdery mildew on cucurbits). Particulars: 500 ppm of active ingredient, young gherkin plants sprayed, inoculated after 24 hours, evaluated 8 days after the inoculation; for pest or weed control at 500 ppm: Podosphaera fuliginea, 192 h, read-out: efficacy. The protocol:
Example: in vivo preventive test on Sphaerotheca fuliginea (powdery mildew on cucurbits)
as §1
The young plants of gherkin were treated by spraying the active ingredient prepared as described above. Control plants were treated only with an aqueous solution of Acetone/Dimethyl sulfoxide/ […].
After 24 hours, the plants were contaminated by spraying the leaves with an aqueous suspension of Sphaerotheca fuliginea spores. The contaminated gherkin plants were incubated for 8 days at 20°C and at 70-80% relative humidity.
The test was evaluated 8 days after the inoculation. 0% means an efficacy which corresponds to that of the control plants while an efficacy of 100% means that no disease was observed.

A short description of data set [4]: LogP measurement by HPLC on reversed phase columns (EEC directive 79/831 Annex V.A8). The data set is classed as physicochemical. The procedure:
If more than one LogP value is available within the same method, all the values are given and separated by "+".
Lambda-max-values were determined using UV-spectra from 200 nm to 400 nm and the peak values of the chromatographic signals.

Setting [5] is: reversed phase HPLC column, method [a]: LC-UV, acidic range, 0.1% formic acid in water and acetonitrile as eluent.
Where [6] appears, read: method [a]: LC-UV, acidic range, 0.1% formic acid in water and acetonitrile as eluent.
Setting [7] is: method [b]: LC-UV, neutral range, 0.001 molar ammonium acetate solution in water and acetonitrile as eluent.
[8] abbreviates: reversed phase HPLC column, method [b]: LC-UV, neutral range, 0.001 molar ammonium acetate solution in water and acetonitrile as eluent.

With `CCN(C)C=Nc1cc(C(F)F)c(Oc2ccnc(SCC(C)C)n2)cc1C` [I.025, N'-[5-(difluoromethyl)-2-methyl-4-[2-(2-methylpropylsulfanyl)pyrimidin-4-yl]oxyphenyl]-N-ethyl-N-methylmethanimidamide], the pest or weed control at 500 ppm in data set [1], in data set [2] and in data set [3] was no less than 70% throughout. This molecule yielded a chromatographic logP in data set [4] (setting [5]) of 1.69.

As for `CCSc1nccc(Oc2cc(C)c(N=CN(C)CC)cc2C)n1` [I.027, N-ethyl-N'-[4-(2-ethylsulfanylpyrimidin-4-yl)oxy-2,5-dimethylphenyl]-N-methylmethanimid-amide], the efficacy entry in data set [1], in data set [2] and in data set [3] was “at least 70%” throughout. Further, the chromatographic logP in data set [4] (setting [6]) worked out at 1.27; in data set [4] (setting [7]), 4.12.

On to `CCN(C)C=Nc1cc(C)c(Oc2ccnc(SC(C)C)n2)cc1C` [I.028, N'-[2,5-dimethyl-4-(2-propan-2-ylsulfanylpyrimidin-4-yl)oxyphenyl]-N-ethyl-N-methylmethan-imidamide], for which the pest or weed control at 500 ppm in data set [1], in data set [2] and in data set [3] was no less than 70% in each case. The chromatographic logP in data set [4] (setting [5]) was determined as 1.45; in data set [4] (setting [8]) it was 4.54.

For `CCCSc1nccc(Oc2cc(C)c(N=CN(C)CC)cc2C)n1` [I.029, N'-[2,5-dimethyl-4-(2-propylsulfanylpyrimidin-4-yl)oxyphenyl]-N-ethyl-N-methylmethanimid-amide], the efficacy entry in data set [1], in data set [2] and in data set [3] was “at least 70%” throughout. Besides, the chromatographic logP in data set [4] (setting [6]) amounted to 1.46; in data set [4] (setting [7]) it was 4.61.

As to `CCN(C)C=Nc1cc(C)c(Oc2ccnc(C(F)(F)F)n2)cc1C` [I.030, N'-[2,5-dimethyl-4-[2-(trifluoromethyl)pyrimidin-4-yl]oxyphenyl]-N-ethyl-N-methylmethan-imidamide], the pest or weed control at 500 ppm in data set [1], in data set [2] and in data set [3] was no less than 70% each time. Moreover, the chromatographic logP in data set [4] (setting [5]) turned out to be 1.24; in data set [4] (setting [8]), 3.82.

On to `CCN(C)C=Nc1cc(C)c(Oc2ccnc(SCC(F)(F)F)n2)cc1C` [I.031, N'-[2,5-dimethyl-4-[2-(2,2,2-trifluoroethylsulfanyl)pyrimidin-4-yl]oxyphenyl]-N-ethyl-N-methylmethanimidamide], for which the pest or weed control at 500 ppm in data set [1], in data set [2] and in data set [3] was no less than 70% throughout. Further, the chromatographic logP in data set [4] (setting [5]) turned out to be 1.52; in data set [4] (setting [8]), 4.37.

Take `CCN(C)C=Nc1cc(C)c(Oc2cc(C)nc(SC)n2)cc1C` [I.033, N'-[2,5-dimethyl-4-(6-methyl-2-methylsulfanylpyrimidin-4-yl)oxyphenyl]-N-ethyl-N-methyl-methanimidamide]: the pest or weed control at 500 ppm in data set [1], in data set [2] and in data set [3] was no less than 70% each time. For the same molecule, the chromatographic logP in data set [4] (setting [5]) amounted to 1.34; in data set [4] (setting [8]), 4.16.

Turning to `CCN(C)C=Nc1cc(C)c(Oc2ccnc(/C=C/C(C)(C)C)n2)cc1C` [I.034, N'-[4-[2-[(E)-3,3-dimethylbut-1-enyl]pyrimidin-4-yl]oxy-2,5-dimethylphenyl]-N-ethyl-N-methylmethanimidamide], the pest or weed control at 500 ppm in data set [1], in data set [2] and in data set [3] was no less than 70% each time. Besides, the chromatographic logP came out at 1.66 in data set [4] (setting [5]) and 4.94 in data set [4] (setting [8]).

In the case of `CCCSc1nccc(Oc2cc(C)c(N=CN(C)CC)cc2C(F)F)n1` [I.036, N'-[5-(difluoromethyl)-2-methyl-4-(2-propylsulfanylpyrimidin-4-yl)oxyphenyl]-N-ethyl-N-methylmethanimidamide], the pest or weed control at 500 ppm in data set [1], in data set [2] and in data set [3] was no less than 70% in each case. For the same molecule, the chromatographic logP in data set [4] (setting [5]) worked out at 1.55.

Turning to `CCN(C)C=Nc1cc(Br)c(Oc2ccnc(Sc3ccccc3)n2)cc1C` [I.037, N'-[5-bromo-2-methyl-4-(2-phenylsulfanylpyrimidin-4-yl)oxyphenyl]-N-ethyl-N-methylmethan-imidamide], the pest or weed control at 500 ppm in data set [1], in data set [2] and in data set [3] was no less than 70% each time. Moreover, the figures for the chromatographic logP in data set [4] (setting [5]) and in data set [4] (setting [8]) were 1.69 and 4.8, respectively.

Regarding `CCN(C)C=Nc1cc(C)c(Oc2ccnc(Sc3ccccc3)n2)cc1C` [I.039, N'-[2,5-dimethyl-4-(2-phenylsulfanylpyrimidin-4-yl)oxyphenyl]-N-ethyl-N-methylmethanimid-amide], the efficacy entry in data set [1], in data set [2] and in data set [3] was “at least 70%” each time. The chromatographic logP in data set [4] (setting [6]) was 1.52; in data set [4] (setting [7]) it was 4.55.

With `CCN(C)C=Nc1cc(C)c(Oc2ccnc(SCC3CC3)n2)cc1C` [I.040, N'-[4-[2-(cyclopropylmethylsulfanyl)pyrimidin-4-yl]oxy-2,5-dimethylphenyl]-N-ethyl-N-methylmethanimidamide], the pest or weed control at 500 ppm in data set [1], in data set [2] and in data set [3] was no less than 70% in each case. This molecule gave a chromatographic logP in data set [4] (setting [5]) of 1.55.

In the case of `CCN(C)C=Nc1cc(C)c(Oc2ccnc(OC3CCCC3)n2)cc1C` [I.041, N'-[4-(2-cyclopentyloxypyrimidin-4-yl)oxy-2,5-dimethylphenyl]-N-ethyl-N-methylmethanimid-amide], the efficacy entry in data set [1], in data set [2] and in data set [3] was “at least 70%” in each case. Moreover, the chromatographic logP worked out at 1.6 in data set [4] (setting [6]) and 4.67 in data set [4] (setting [7]).

Consider `CCN(C)C=Nc1cc(C)c(Oc2ccnc(SCc3ccccc3)n2)cc1C` [I.042, N'-[4-(2-benzylsulfanylpyrimidin-4-yl)oxy-2,5-dimethylphenyl]-N-ethyl-N-methylmethanimid-amide], for which the efficacy entry in data set [1], in data set [2] and in data set [3] was “at least 70%” in each case. In addition, the results for the chromatographic logP in data set [4] (setting [6]) and in data set [4] (setting [7]) were 1.63 and 4.82, respectively.

Turning to `CCN(C)C=Nc1cc(C)c(Oc2ccnc(SCC[Si](C)(C)C)n2)cc1C` [I.043, N'-[2,5-dimethyl-4-[2-(2-trimethylsilylethylsulfanyl)pyrimidin-4-yl]oxyphenyl]-N-ethyl-N-methylmethanimidamide], the pest or weed control at 500 ppm in data set [1], in data set [2] and in data set [3] was no less than 70% throughout. Further, in data set [4] (setting [6]), the chromatographic logP was determined as 2.17.

For the molecule `CCN(C)C=Nc1cc(C#N)c(Oc2ccnc(C(C)(C)C)n2)cc1C` [I.044, N'-[4-(2-tert-butylpyrimidin-4-yl)oxy-5-cyano-2-methylphenyl]-N-ethyl-N-methylmethanimid-amide], the efficacy entry in data set [1], in data set [2] and in data set [3] was “at least 70%” each time. For the same molecule, the chromatographic logP was determined as 1.41 in data set [4] (setting [6]) and 4.29 in data set [4] (setting [7]).

With `CCN(C)C=Nc1cc(C)c(Oc2ccnc(SC(C)(C)C)n2)cc1Cl` [I.045, N'-[4-(2-tert-butylsulfanylpyrimidin-4-yl)oxy-2-chloro-5-methylphenyl]-N-ethyl-N-methyl-methanimidamide], the pest or weed control at 500 ppm in data set [1], in data set [2] and in data set [3] was no less than 70% throughout. Moreover, the chromatographic logP was 1.63 in data set [4] (setting [5]) and 4.5 in data set [4] (setting [8]).

As usually defined, the chromatographic logP is lipophilicity estimated from chromatographic retention.
